Test results: patent publication US8329644B2, “Lantibiotic-based compounds having antimicrobial activity” (Novacta Biosystems Limited, priority 2007, dated 2012)
“And” between values parts separate entries of the source, which are not always exact repeats. Identical values can stand only once.

Legend:
[1] = Stability in simulated intestinal fluid (SIF); format: in vitro ADME; details: 37° C., analytical HPLC
Protocol: (§1) Nisin, mersacidin, compound I and compound III were tested for their susceptibility towards enzymatic digestion in the stomach. Nisin, mersacidin and compound III were tested for their susceptibility towards enzymatic digestion in the intestine. The SGF and SIF were based on the standard USP solutions for simulated gastric and simulated intestinal fluids and their activity confirmed against Bovine Serum Albumin (Hilger et al, Clin. Exp. Immunol. 2001, 123, 387-94). The compounds were incubated in SGF or SIF at 37° C. and their concentrations quantified by analytical HPLC (UV detection at 210 nm). The potential degradation of each compound was also monitored qualitatively by measuring in vitro antibacterial activity against Micrococcus luteus.
The rapid degradation of nisin in this medium supports the observation that the clinical utility of nisin for the treatment of colonic infections is very limited unless the compound can be protected from degradative enzymes by means of careful formulation.

S. constellatus = assay: MIC susceptibility testing, S. constellatus; format: cell-based; details: S. constellatus GRL05065; Viridans streptococci; Table 3
Protocol: (§2) Susceptibility testing for all aerobic organisms with the exception of Streptococcus pneumoniae was performed by two-fold serial antibiotic dilutions in Mueller-Hinton Broth supplemented with 50 μg/ml Ca^2+ unless otherwise noted. Susceptibility testing for S. pneumoniae was performed by two-fold serial antibiotic dilutions in Brain-Heart-Infusion Broth supplemented with 50 μg/ml Ca^2+ unless otherwise noted. Actively growing broth cultures were diluted to contain […] by adjusting to an OD600 of 0.2-0.3. They were then diluted a further 1:100 in fresh sterile broth. The assays were performed in duplicate in sterile 96-well microtitre plates in a total volume of 200 μl (160 μl broth, 20 μl antimicrobial agent, 20 μl inoculum) in a concentration range from 64 μg/ml to 0.06 μg/ml. […] Clinical isolates of Clostridium difficile were tested in Wilkins-Chalgren Anaerobe Agar under anaerobic conditions. In all cases, vancomycin was used as a reference antibiotic

M. luteus = assay: MIC susceptibility testing, M. luteus; format: cell-based; details: M. luteus 4698; Table 2
Protocol: as §2

S. acidominimus = assay: MIC susceptibility testing, S. acidominimus; format: cell-based; details: S. acidominimus 7862865; Viridans streptococci; Table 3
Protocol: as §2

S. mitis = assay: MIC susceptibility testing, S. mitis; format: cell-based; details: Viridans streptococci, Table 3
Protocol: as §2

Clostridium difficile = assay: MIC, Clostridium difficile in Wilkins-Chalgren Anaerobe Agar; format: cell-based; details: Table 4
Protocol: as §2

S. salivarius = assay: MIC susceptibility testing, S. salivarius; format: cell-based; details: S. salivarius GRL05064; Viridans streptococci; Table 3
Protocol: as §2

E. faecium = assay: MIC susceptibility testing, E. faecium; format: cell-based
Protocol: as §2

Bacteroides fragilis = assay: MIC against intestinal flora organisms, Bacteroides fragilis; format: cell-based; details: Bacteroides fragilis NCTC 9343; Table 5
[2] = Stability in simulated gastric fluid (SGF); format: in vitro ADME; details: 37° C., analytical HPLC
Protocol: as §1

[3] = test system: Bacteroides thetaiotaomicron; assay: MIC against intestinal flora organisms, Bacteroides thetaiotaomicron; format: cell-based; details: Bacteroides thetaiotaomicron NCTC 10582; Table 5
S. epidermidis = assay: MIC susceptibility testing, S. epidermidis; format: cell-based, Staphylococcus epidermidis
Protocol: as §2

E. faecalis = assay: MIC susceptibility testing, E. faecalis; format: cell-based
Protocol: as §2

CCC(C)[C@@H]1NC(=O)[C@H](C(C)C)NC(=O)[C@H]2NC(=O)CNC(=O)[C@@H]3CS[C@@H](C)[C@@H](NC(=O)[C@H]4CSC[C@H](N)C(=O)N[C@@H](CO)C(=O)NCC(=O)N[C@@H](Cc5c[nH]c6ccccc56)C(=O)N[C@@H](C(C)C)C(=O)N4)C(=O)N[C@@H](CC(C)C)C(=O)N[C@@H](C(=O)N[C@@H](C(C)CC)C(=O)N[C@@H](CCC(=O)O)C(=O)N3)[C@H](C)SC[C@H](NC1=O)C(=O)N[C@@H](C)C(=O)N[C@H](C(=O)NCCO)C[S+]([O-])[C@H]2C (some centres unmarked) [Compound III, Actagardine N-[2-ethanolamine]monocarboxamide]
8 µg/mL and 4 µg/mL: MIC (E. faecium; E. faecium GRL05033, Vancomycin resistant enterococci, Table 3)
1 µg/mL: MIC (M. luteus) | MIC (Clostridium difficile; C. difficile 027C) | MIC (Clostridium difficile; C. difficile 027SM) | MIC (Clostridium difficile; C. difficile E4) | MIC (Clostridium difficile; C. difficile P49) | MIC (Clostridium difficile; C. difficile P59) | MIC (Clostridium difficile; C. difficile P62) | MIC (S. salivarius)
2 µg/mL: MIC (Clostridium difficile; C. difficile 19126) | MIC (Clostridium difficile; C. difficile 37779) | MIC (Clostridium difficile; C. difficile B32) | MIC (Clostridium difficile; C. difficile E16) | MIC (Clostridium difficile; C. difficile E101) | MIC (Clostridium difficile; C. difficile P24)
4 µg/mL: MIC (S. acidominimus) | MIC (S. mitis; S. mitis 1 7722543) | MIC (S. mitis; S. mitis 1 7863547) | Minimal Inhibitory Concentration (MIC) (E. faecium; E. faecium (VRE) (clinical isolate), Table 5, second isolate) | Minimal Inhibitory Concentration (MIC) (E. faecium; E. faecium (VSE) ATCC 29212, Table 5) | MIC (E. faecium; E. faecium GRL05031, Vancomycin resistant enterococci, Table 3) | MIC (E. faecium; E. faecium GRL05032, Vancomycin resistant enterococci, Table 3) | MIC (E. faecalis; E. faecalis 29212, Table 2) | MIC (E. faecalis; E. faecalis GRL05029, Vancomycin sensitive enterococci, Table 3) | MIC (E. faecalis; E. faecalis GRL05030, Vancomycin sensitive enterococci, Table 3)
>32 µg/mL: MIC (S. constellatus) | MIC (E. faecium; E. faecium 7634337, Vancomycin resistant enterococci, Table 3) | MIC (E. faecium; E. faecium 7662769, Vancomycin resistant enterococci, Table 3) | MIC (E. faecium; E. faecium 7865229, Vancomycin sensitive enterococci, Table 3) | MIC (E. faecium; E. faecium 7865532, Vancomycin resistant enterococci, Table 3) | MIC (E. faecium; E. faecium 9709024, Vancomycin resistant enterococci, Table 3) | MIC (E. faecium; E. faecium 9710577, Vancomycin resistant enterococci, Table 3) | MIC (S. epidermidis; S. epidermidis 7753921, Methicillin resistant, Table 3) | MIC (S. epidermidis; S. epidermidis 7755298, Methicillin resistant, Table 3) | MIC (S. epidermidis; S. epidermidis 7865688, Methicillin resistant, Table 3) | MIC (S. epidermidis; S. epidermidis GRL05001, Methicillin sensitive, Table 3) | MIC (S. epidermidis; S. epidermidis GRL05002, Methicillin sensitive, Table 3) | MIC (S. epidermidis; S. epidermidis GRL05005, Methicillin sensitive, Table 3) | MIC (S. epidermidis; S. epidermidis GRL05006, Methicillin sensitive, Table 3) | MIC (S. epidermidis; S. epidermidis GRL05007, Methicillin sensitive, Table 3) | MIC (S. epidermidis; S. epidermidis GRL05008, Methicillin sensitive, Table 3) | MIC (S. epidermidis; S. epidermidis GRL05009, Methicillin sensitive, Table 3) | MIC (S. epidermidis; S. epidermidis GRL05010, Methicillin sensitive, Table 3) | MIC (S. epidermidis; S. epidermidis GRL05011, Methicillin resistant, Table 3) | MIC (S. epidermidis; S. epidermidis GRL05013, Methicillin resistant, Table 3) | MIC (S. epidermidis; S. epidermidis GRL05014, Methicillin resistant, Table 3) | MIC (S. epidermidis; S. epidermidis GRL05015, Methicillin resistant, Table 3) | MIC (S. epidermidis; S. epidermidis GRL05017, Methicillin resistant, Table 3) | MIC (S. epidermidis; S. epidermidis GRL05019, Methicillin resistant, Table 3)
32 µg/mL: MIC (S. epidermidis; S. epidermidis GRL05003, Methicillin sensitive, Table 3) | MIC (S. epidermidis; S. epidermidis GRL05004, Methicillin sensitive, Table 3) | MIC (S. epidermidis; S. epidermidis GRL05020, Methicillin resistant, Table 3) | MIC (S. epidermidis; S. epidermis 11047, Table 2)
16 µg/mL: MIC (S. mitis; S. mitis GRL05067) | MIC (E. faecium; E. faecium 19579, Table 2) | MIC (E. faecium; E. faecium 19579, Vancomycin sensitive enterococci, Table 3) | Minimal Inhibitory Concentration (MIC) (E. faecium; E. faecium (VSE) ATCC 19579, Table 5) | MIC (E. faecium; E. faecium GRL05034, Vancomycin resistant enterococci, Table 3) | MIC (E. faecium; E. faecium GRL05035, Vancomycin resistant enterococci, Table 3)
8 µg/mL: MIC (S. mitis; S. mitis GRL05062) | MIC (E. faecalis; E. faecalis 7754422, Vancomycin sensitive enterococci, Table 3) | MIC (E. faecalis; E. faecalis GRL05023, Vancomycin sensitive enterococci, Table 3) | MIC (E. faecalis; E. faecalis GRL05024, Vancomycin sensitive enterococci, Table 3) | MIC (E. faecalis; E. faecalis GRL05026, Vancomycin sensitive enterococci, Table 3) | MIC (E. faecalis; E. faecalis GRL05027, Vancomycin sensitive enterococci, Table 3)
64 µg/mL: MIC (E. faecium; E. faecium 7131121, Table 2) | Minimal Inhibitory Concentration (MIC) (E. faecium; E. faecium (VRE) (clinical isolate), Table 5, first isolate)
did not show appreciable degradation: degradation in Simulated Gastric Fluid [2]
>64 µg/mL: Minimal Inhibitory Concentration (MIC) (Bacteroides fragilis) | Minimal Inhibitory Concentration (MIC) [3]
essentially stable: stability in SIF [1]
